Patent US10052305B2, “Lipoic acid and derivatives thereof for the treatment of cystinuria” (Buck Institute for Research on Aging, priority 2015, dated 2018)

Columns and labels:
Assay type in all cases: in vivo
Slc3a1−/− mice [1] = assay: Prevention of cystine stone formation in a genetic mouse model of cystinuria, evaluated by micro-computed tomography (μCT)
From the text: A genetic mouse model of cystinuria was used to study the formation of cystine urinary stones. Mice lacking the gene Slc3a1 (Slc3a1^−/−) were fed a diet supplemented with 0.5% (±)-α-lipoic acid and evaluated for the formation of cystine stones using micro-computed tomography (μCT). […] On average, mice treated with lipoic acid developed much smaller cystine stones (mm^3). This experiment was repeated again (Experiment 2) with similar results; none (0 out of 6) of the lipoic acid treated cystinuric mice developed stones while all control, non-treated mice (8 out of 8) had developed urinary stones had developed stones by day 27 of the study.

Slc3a1−/− mice [2] = assay: Effect on cystine urinary stone growth tracked by μCT after switch to a lipoic acid diet; settings: Slc3a1−/− mice on standard diet, switched on day 54 to diet with 0.5% (±)-α-lipoic acid; before vs after treatment
From the text: To evaluate the effect of lipoic acid on cystine urinary stone growth, stone development was tracked by micro-computed tomography (μCT) in Slc3a1^−/− mice fed a standard diet. On day 54 of the study, the mice were switched onto a diet supplemented with 0.5% (±)-α-lipoic acid.

[3] = Real time food and water intake in metabolic cages; settings: Slc3a1−/− mice; 0.5% (±)-α-lipoic acid diet vs standard diet; 3 days after 3 days of acclimation
Procedure: Real time food and water intake was measured in Slc3a1^−/− mice treated with 0.5% (±)-α-lipoic acid supplemented diet by group housing in metabolic cages. Mice were acclimated to the metabolic cage environment for 3 days and then evaluated for food and water intake for the subsequent 3 days.

**Q.** For `O=C(O)CCCCC1CCSS1` (racemic) [Lipoic acid, (±)-α-lipoic acid], which “mice that developed stones” value (Slc3a1−/− mice [1]; Experiment 2 (repeat), by day 27 of the study, non-treated mice 8 out of 8) is on record?
**A.** Its value is 0 out of 6.

**Q.** And the “average cystine stone size vs non-treated mice” value (Slc3a1−/− mice [1]; first experiment (FIG. 2), diet supplemented with 0.5% (±)-α-lipoic acid)?
**A.** The value was “much smaller”.

**Q.** What about the “mice that developed cystine stones” value (Slc3a1−/− mice [1]; first experiment (FIG. 2), diet supplemented with 0.5% (±)-α-lipoic acid, non-treated mice 7/7) of the same compound?
**A.** Its value is 2 out of 8.

**Q.** What about the “decrease of the rate of stone volume accumulation (mm^3/day)” value (Slc3a1−/− mice [2]) of the same compound?
**A.** Its value is 90%.

**Q.** What about the “light cycle, dark cycle, or total food intake” value [3] of the same compound?
**A.** The value was “did not especially alter”.

**Q.** What about the “light cycle, dark cycle, or total water intake” value [3] of the same compound?
**A.** Its value is “did not especially alter”.
